In patent publication US11161846B2, “Substituted pyrazolo[4,3-b]pyridines and their use as GluN2B receptor modulators” (JANSSEN PHARMACEUTICA NV, priority 2019, dated 2021):
pIC50: −log10 of the molar value.

What was measured:
[1] = biological target: T1, human GluN1/GluN2B NMDA receptors (Homo sapiens, UniProt Q05586+Q13224); assay: Calcium flux (FLIPR) assay on cloned human NR1/GluN2B ion channels expressed in mammalian cells, standard assay; format: cell-based; details: glutamate ~EC40 and 10 μM glycine, stable cell line with Tet-On induced expression
T1 construct: expressed in transfected cells
Method in brief: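 Tet-On-induced stable mammalian line loaded with Calcium 5 dye (0.5 mM MgCl2 loading buffer), then assayed in pH 7.4 buffer with 137 mM NaCl, 4 mM KCl, 2 mM CaCl2. Compound was added for 5 min, then glutamate (~EC40) plus 10 µM glycine for 5 min. FLIPR fluorescence was normalized to control wells.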

[2] = Liver microsomal stability (extraction ratio); format: in vitro ADME; details: test compound 1 μM; 0.5 mg/mL liver microsomes, NADPH, 37° C.; species not given (method: mouse, rat, and human)
Description: Protocol for Liver Microsomal Stability (Extraction Ratio)
Liver Microsomal Stability.
Microsomal stability studies (Chrovian et al, “1H-Pyrrolo[3,2-b]pyridine GluN2B-Selective Negative Allosteric Modulators”. ACS Med Chem Lett. 2019 Jan. 10; 10(3):261-266) were conducted on a Biomek® FX Robotic Liquid Handling Workstation (Beckman Coulter, Brea, Calif.), which consists of a 96-channel pipette head, a 12-position workstation deck, and a plate incubator. Test compounds (1 μm) were spiked in a reaction mix consisting of 100 mM potassium phosphate buffer (pH 7.4), 3 mM MgCl2, and 0.5 mg/mL liver microsomes from mouse, rat, and human (BD Gentest). The reaction was brought to 37° C. and initiated by adding NADPH to a final concentration of 1 mM. After mixing on the plate deck, 50 μL aliquots were excised from the reaction plate at 0, 5, 10, 20, 40, and 60 min and quenched with four volumes of acetonitrile spiked with […] of the internal standard phenytoin. Quenched plates were centrifuged at 5700 rpm for 10 min at 4° C., and supernatant was diluted 1:3 in water before LC/MS/MS analysis. The compound half-lives were derived from plots of the ln of percent remaining compound over time to determine the intrinsic clearance. The predicted hepatic clearance was derived from the intrinsic clearance value using equations from the well-stirred model (Current Drug Metabolism, 2008, 9, 940-951), where no correction was made plasma protein binding and the blood to plasma concentration ratio was assumed to be one. The extraction ratio (ER) was calculated by dividing the predicted hepatic clearance by species blood flow (Q), where Q is 90, 55, and 21.7 mL/min/kg for mouse, rat and human, respectively.

T1 sequence (Q13224 27-1484, other chains not shown): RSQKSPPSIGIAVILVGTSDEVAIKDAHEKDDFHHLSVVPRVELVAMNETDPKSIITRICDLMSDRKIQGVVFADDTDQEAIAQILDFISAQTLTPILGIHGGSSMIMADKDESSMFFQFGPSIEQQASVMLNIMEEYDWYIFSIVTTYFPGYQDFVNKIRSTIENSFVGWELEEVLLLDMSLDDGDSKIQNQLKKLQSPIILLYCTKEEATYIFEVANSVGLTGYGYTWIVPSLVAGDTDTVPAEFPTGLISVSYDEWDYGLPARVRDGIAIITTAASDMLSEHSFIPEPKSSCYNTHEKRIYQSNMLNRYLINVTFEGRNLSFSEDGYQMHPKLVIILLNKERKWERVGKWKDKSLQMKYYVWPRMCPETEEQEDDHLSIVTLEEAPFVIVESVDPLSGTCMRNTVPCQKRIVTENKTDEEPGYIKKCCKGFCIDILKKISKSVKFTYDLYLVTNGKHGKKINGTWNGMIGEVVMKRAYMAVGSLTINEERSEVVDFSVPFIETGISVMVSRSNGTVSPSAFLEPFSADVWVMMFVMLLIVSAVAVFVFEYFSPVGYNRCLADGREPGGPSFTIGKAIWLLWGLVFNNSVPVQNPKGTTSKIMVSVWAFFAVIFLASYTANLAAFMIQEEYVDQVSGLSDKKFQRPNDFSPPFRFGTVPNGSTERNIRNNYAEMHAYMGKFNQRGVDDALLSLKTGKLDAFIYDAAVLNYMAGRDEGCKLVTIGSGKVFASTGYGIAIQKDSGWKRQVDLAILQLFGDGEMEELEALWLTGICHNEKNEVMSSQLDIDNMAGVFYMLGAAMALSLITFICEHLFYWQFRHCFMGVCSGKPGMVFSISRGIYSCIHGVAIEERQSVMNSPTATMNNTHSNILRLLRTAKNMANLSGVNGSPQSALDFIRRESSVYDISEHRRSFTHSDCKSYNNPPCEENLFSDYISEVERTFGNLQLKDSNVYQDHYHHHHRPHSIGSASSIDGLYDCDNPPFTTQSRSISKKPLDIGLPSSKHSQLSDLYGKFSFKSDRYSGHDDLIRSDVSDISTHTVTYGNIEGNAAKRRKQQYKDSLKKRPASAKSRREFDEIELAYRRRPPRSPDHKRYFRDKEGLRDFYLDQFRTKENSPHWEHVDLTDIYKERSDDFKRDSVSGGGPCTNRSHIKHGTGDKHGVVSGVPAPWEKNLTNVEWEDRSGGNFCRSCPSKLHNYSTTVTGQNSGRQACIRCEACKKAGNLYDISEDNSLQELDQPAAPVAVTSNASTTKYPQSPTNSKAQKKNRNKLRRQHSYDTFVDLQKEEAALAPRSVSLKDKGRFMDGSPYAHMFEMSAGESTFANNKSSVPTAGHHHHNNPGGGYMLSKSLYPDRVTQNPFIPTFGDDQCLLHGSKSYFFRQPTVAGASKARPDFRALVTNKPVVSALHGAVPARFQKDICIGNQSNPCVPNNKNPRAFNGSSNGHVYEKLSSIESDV

Row | SMILES | pIC50 [1] | Extraction Ratio @ 1 μM [2]
1 | CC(=O)Cn1ncc2ncc(-c3ccc(F)c(OC(F)F)c3)cc21 [Example 25, 1-[6-[3-(Difluoromethoxy)-4-fluoro-phenyl]pyrazolo[4,3-b]pyridin-1-yl]propan-2-one] | 7.47 | 0.64
2 | CCC(=O)Cn1ncc2ncc(-c3ccc(F)c(C(F)F)c3)cc21 [Example 4, 1-[6-[3-(Difluoromethyl)-4-fluoro-phenyl]pyrazolo[4,3-b]pyridin-1-yl]butan-2-one] | 8.00 | 0.66
3 | Cc1c(F)ccc(-c2cnc3cnn(CC(=O)C4CC4)c3c2)c1C [Example 78, 1-Cyclopropyl-2-[6-(4-fluoro-2,3-dimethyl-phenyl)pyrazolo[4,3-b]pyridin-1-yl]ethanone] | 7.07 | 0.52
4 | CCC(=O)Cn1nc(C)c2ncc(-c3ccc(F)c(C(F)F)c3)cc21 [Example 36, 1-(6-(3-(Difluoromethyl)-4-fluorophenyl)-3-methyl-1H-pyrazolo[4,3-b]pyridin-1-yl)butan-2-one] | 7.57 | 0.72
5 | CCC(=O)Cn1ncc2ncc(-c3cc(F)c(F)c(F)c3)cc21 [Example 42, 1-[6-(3,4,5-Trifluorophenyl)pyrazolo[4,3-b]pyridin-1-yl]butan-2-one] | 7.57 | 0.63
6 | CCC(=O)Cn1ncc2ncc(-c3cccc(C(F)(F)F)c3F)cc21 [Example 38, 1-[6-[2-Fluoro-3-(trifluoromethyl)phenyl]pyrazolo[4,3-b]pyridin-1-yl]butan-2-one] | 7.52 | 0.61
7 | O=C(Cn1ncc2ncc(-c3cccc(C(F)F)c3)cc21)C1CC1 [Example 61, 1-Cyclopropyl-2-[6-[3-(difluoromethyl)phenyl]pyrazolo[4,3-b]pyridin-1-yl]ethanone] | 7.92 | 0.43

The next lines start with the values.

Row | pIC50 [1] | Extraction Ratio @ 1 μM [2] | SMILES
8 | 7.18 | 0.46 | CC[S+]([O-])Cn1ncc2ncc(-c3ccc(F)c(C(F)F)c3)cc21 (single isomer, unassigned) [Example 85, (R*)-6-(3-(Difluoromethyl)-4-fluorophenyl)-1-((ethylsulfinyl)methyl)-1H-pyrazolo[4,3-b]pyridine]
9 | 6.71 | 0.58 | CCN1CC(Cn2ncc3ncc(-c4ccc(F)c(C(F)F)c4)cc32)OC1=O (racemic) [Example 131, (RS)-5-[[6-[3-(Difluoromethyl)-4-fluoro-phenyl]pyrazolo[4,3-b]pyridin-1-yl]methyl]-3-ethyl-oxazolidin-2-one]
10 | 7.10 | 0.50 | CC[S+]([O-])Cn1ncc2ncc(-c3cccc(C(F)(F)F)c3F)cc21 (racemic) [Example 86, (RS)-1-(Ethylsulfinylmethyl)-6-[2-fluoro-3-(trifluoromethyl)phenyl]pyrazolo[4,3-b]pyridine]
